Legend:
HIV [1] = assay: Inhibition of syncytia formation induced by HIV (summary statements); type: cell-based
Method: CEM or C8166 cells were chronically infected with HIV-1 Lai or HIV-2 Rod, or HIV-1MN, respectively. Infected cells (1×10^4) were incubated for 2 hours with various concentrations of MBPCs in 96-well plates. Uninfected Molt-4 cells (4×10^4) were then added in […]. Syncytia were counted after 18 hours at 37° C.

HIV [2] = assay: Infection of HT-29 human colon cells through the GalCer receptor; type: cell-based
Method: The activity of MBPCs was evaluated on this alternative infection route as follows: HT-29 cells (5×10^5 cells) were incubated with MBPCs (5×10^-6 M) for 45 minutes and subsequently exposed to 100 TCID50 of HIV-1 (LAI), HIV-1 (NDK) or HIV-2 (ROD) for 1 hour at 37° C. The residual inoculum was inactivated by three successive trypsinations and infection was assessed by: i) direct measurement of HIV-1 p24^gag (for HIV-1 isolates) and RT activity (for HIV-1 and HIV-2 isolates) in the culture supernatants; ii) co-cultivation with human PBLs. The cells were treated with the MBPCs as follows: 1- none; 2- [GPGRAF]8 -MLC; 3- [GPGRAF]8 -MLCD; 4- [GPG(R)DAF]8 -MLC; 5- [GPGRAF]16 -MLC; 6- [[…]]4 -MLC; and 7- [[…]]4 -MLC, with all amino acids in L form unless noted otherwise. The results shown in FIG. 5A, which correspond to infection with HIV-1 (NDK), are representative of three separate experiments and the MBPC used is indicated by the number on the x-axis. The concentration of p24^gag (pg/ml) was measured during the co-culture experiment with PBLs (+++, >10 ng/ml 10 days post-infection; ++, >1 ng/ml 13 days post-infection; +, >1 ng/ml 16 days post-infection; -, no detectable p24^gag 1 month post-infection). Similar results were obtained with HIV-1 (LAI) and HIV-2 (ROD).

GalCer receptor = assay: Binding of gp120 to GalCer (HPTLC binding assay)
Method: In another experiment with the same MBPCs, the effect of MBPCs on the binding of gp120 to GalCer was analyzed using a high performance thin layer chromatography (HPTLC) binding assay. MBPCs (10^-4 M) were preincubated with GalCer for 1 hour at room temperature. After thorough washing, the HPTLC plates were incubated with HIV-1 recombinant gp120 (2.5 ug/ml) followed by rabbit anti-gp120 and ^125 I-goat anti-rabbit IgG. The plates were washed in PBS and exposed to Amersham Hyperfilm MP for 8 hours. As shown in FIG. 5B treatment of HT-29 cells with active MBPCs protected the cells from infection by HIV-1 (NDK isolate). This antiviral effect was correlated with its ability to block the binding of gp120 to GalCer.

(GPGRAF)16 -(K)8 -(K)4 -(K)2 -K-βA-OH [MBPC.12]
MBPC concentration with which inhibiting effect on syncytia formation was observed in vitro (HIV [1]): around 10^-6 M
inhibiting effect on syncytia formation, in words (HIV [1]): results similar to those of MBPC.3
block of the infectivity of HIV on human colon cells (HIV [2]): completely block
binding to / activity on the Galactosyl Ceramide receptor (GalCer receptor): bind to the second receptor

From patent US5622933A, “Multiple branch peptide constructions for use against HIV” (priority 1993, dated 1997)
